Results published in patent publication US20260191962A1, “NOVEL CHLORIN E6 ANALOGUES” (RMW CHO Group Limited, priority 2022, published 2026).
Structures can show the parent of a compound that is named as a salt. Where two headings read alike, the source gives them in different places.

Tests used:
[1] = test system: SKOV3 ovarian cancer cells; test: Phototoxicity of chlorin e6 analogues in SKOV3 cells after 652 nm laser activation (AlamarBlue viability); type: cell-based, Human; details: for IC90: 24 h uptake, 652 nm laser 50 mW/cm^2 for 5 mins (15 J/cm^2), viability 24 h later; for Phototoxicity in vitro compared with compounds 1, 2 and 8: comparison in words
Method: Samples were stored at 4° C. protected from light.
All data are shown as mean±SD (where appropriate).
To test for phototoxicity, cells incubated with chlorin e6 analogues (0-10 μM in DMSO) had culture media replaced after 24 hours (as above) and were then exposed to a 652 nm laser (Invion) with laser density at 50 mW/cm^2 for 5 mins (total 15 J/cm^2). Following activation, cells were cultured for a further 24 hours. Media was then replaced with fresh media containing AlamarBlue, and % viable cells remaining assessed as above. Controls included cells treated with chlorin e6 analogues but not activated by laser light; cells without chlorin e6 analogue treatment but with laser light; and untreated controls. All measurements were made in quadruplicate.
To evaluate the therapeutic potential of chlorin e6 analogues, the therapeutic index (TI) was calculated. TI provides a quantitative measurement to describe relative drug safety, by comparing the drug concentration required for desirable effects versus the concentration resulting in undesirable off-target toxicity. TI was calculated using phototoxicity IC90 vs dark toxicity IC10.

[2] = test system: SKOV3 ovarian cancer cells; test: Inherent cytotoxicity (dark toxicity) in SKOV3 cells (AlamarBlue viability); details: 24 h incubation, no light activation
Method: (§1) Photosensitizers (e.g. chlorin e6 analogue, chlorin e4 disodium (provided by Advanced Molecular Technologies, Scoresby) or Talaporfin sodium (purchased from Focus Bioscience cat #HY-16477-5MG)) were resuspended in 100% dimethylsulfoxide (DMSO) at a concentration of 5.5 mM. Samples were stored at 4° C. protected from light.
(§2) For in vitro experiments, photosensitizers (stock solution 5.5 mM in 100% DMSO) were diluted 1:100 in concentrated excipient solution (final 55 M photosensitizer in 10% w/v Kollidon-12, 42.4% w/v polysorbate 80, 0.6% w/v citric acid anhydrous, 40% w/v ethanol, 1.0% DMSO). Serial dilutions were prepared in cell culture media (Dulbecco's Modified Eagle Medium/Nutrient Mixture F-12 (DMEM/F-12)) supplemented with 10% v/v Fetal Bovine Serum, 100 U/mL penicillin, 100 μg/mL streptomycin and the same excipient solution at a constant 1:55 dilution.
(§3) Human ovarian cancer cell line SKOV3 (ATCC #HTB-77) was maintained in Dulbecco's Modified Eagle Medium/Nutrient Mixture F-12 (DMEM/F-12), supplemented with 10% v/v Fetal Bovine Serum, 100 U/mL penicillin and 100 g/mL streptomycin. Monolayer cultures were grown in a humidified incubator at 37° C. with 5% CO2. Once cells had reached ~80% confluence, spent media was replaced with media containing photosensitizer at the required concentration and cells were incubated for the desired period of time to allow photosensitizer uptake.
(§4) Spectral absorbance and viability measurements were normalized in the range 0-100%, with a minimum of 0 and a maximum value determined from the dataset. Dose response was determined using a sigmoidal four-point non-linear regression with variable slope, and IC10 or IC90 calculated for each compound. All data are shown as mean±SD (where appropriate).
(§5) SKOV3 cells were seeded in 96-well black wall plates (Greiner #655090) at a cell density of 5000 cells in 100 μl culture medium per well. On reaching 60% confluence, media was aspirated and replaced with fresh media containing the relevant chlorin e6 analogue from 0-100 μM in DMSO. Cells were incubated for a further 24 hours, allowing uptake of chlorin e6 analogues.
(§6) To test for inherent cytotoxicity (i.e. “dark toxicity”) of the chlorin e6 analogues, the culture media was replaced after 24 hours with fresh media containing 10% (v/v) AlamarBlue Cell Viability Reagent (ThermoFisher) and cells incubated at 37° C. for 6 hours. Untreated cells were used as a control. Fluorescence (Ex 555 nm/Em 596 nm) was measured using a Cytation 3 Cell Imaging Multi-Mode Reader (Biotek), and cytotoxicity assessed according to the % viable cells remaining. All measurements were made in quadruplicate.
(§7) The phototoxicity and inherent cytotoxicity (i.e. “dark toxicity”) of chlorin e6 analogues were assessed as previously using SKOV3 ovarian cancer cells.

[3] = test system: SKOV3 ovarian cancer cells; details: human, 24 h
Method: as §1, §2, §3, §4, §5, §6, §7

[4] = Stability of chlorin e6 analogue salts in aqueous solution (HPLC purity over time); type: physicochemical; details: 30° C.; for Stability: aqueous solution, overall rating in words
Method: Reaction solutions were prepared by dissolving 2-3 mg of the respective chlorin e6 analogue salt in 5 mL of distilled deionised water in a 50 mL test tube fitted with a lid. The solutions were stirred in the test tubes at 30° C. Air (oxygen) and ambient light so were not excluded. Sample HPLC analyses were performed at 0.5, 4 or 66 hours (unless indicated otherwise). The aim was to look for degradation over time.
• Mobile Phase: A=0.05% w/v phosphoric acid in distilled water; B=acetonitrile • Injection volume: 5 μL • HPLC run length: 35 minutes • Detection wavelength: 406 nm • Column temperature: 40° C.

[5] = Homo sapiens, SK-OV-3, light or radiation study
[6] = distilled deionised water, air and ambient light not excluded
[7] = distilled deionised water, air and ambient light not excluded, Disodium Salt

SMILES	Stability [4]	Purity by HPLC after 0.5 hours (%) [4, 6] [%]	Purity by HPLC after 4 hours (%) [4, 6] [%]	Purity by HPLC after 66 hours (%) [4, 6] [%]	also measured
C=Cc1c(C)c2cc3nc(c(C)c4[nH]c(cc5nc(cc1[nH]2)C(C)=C5CC)c(C)c4C(=O)O)[C@@H](CCC(=O)O)[C@@H]3C [Chlorin e4 disodium, reference compound]	–	–	–	–	IC90 [1]: 21.3 µM; Phototoxicity in vitro compared with compounds 1, 2 and 8 [1]: substantially lower phototoxicity; Dark toxicity μM (IC10) [2]: 40.23 µM
C=Cc1c(C)c2cc3nc(c(CC(=O)O)c4[nH]c(cc5nc(cc1[nH]2)C(C)=C5CC)c(C)c4C(=O)NCCCS[C@@H]1O[C@H](CO)[C@@H](O)[C@H](O)[C@H]1O)[C@@H](CCC(=O)NCCCS[C@@H]1O[C@H](CO)[C@@H](O)[C@H](O)[C@H]1O)[C@@H]3C [Compound 1, chlorin e6 bis β-D-1-thioglucose propylamide conjugate 1]	–	–	–	–	IC90 [1, 5]: 6.48 µM; Dark toxicity μM (IC10) [3]: 168.10 µM
C=Cc1c(C)c2cc3nc(c(CC(=O)NCCCS[C@@H]4O[C@H](CO)[C@@H](O)[C@H](O)[C@H]4O)c4[nH]c(cc5nc(cc1[nH]2)C(C)=C5CC)c(C)c4C(=O)NCCCS[C@@H]1O[C@H](CO)[C@@H](O)[C@H](O)[C@H]1O)[C@@H](CCC(=O)NCCCS[C@@H]1O[C@H](CO)[C@@H](O)[C@H](O)[C@H]1O)[C@@H]3C [Compound 2, chlorin e6 tris β-D-1-thioglucose propylamide conjugate 2]	–	–	–	–	IC90 [1, 5]: 7.89 µM; Dark toxicity μM (IC10) [3]: 167.50 µM
C=Cc1c(C)c2cc3nc(c(CC(=O)N(C)CCC[P+](c4ccccc4)(c4ccccc4)c4ccccc4)c4[nH]c(cc5nc(cc1[nH]2)C(C)=C5CC)c(C)c4C(=O)OC)[C@@H](CCC(=O)OC)[C@@H]3C [Compound 8, Chlorin e6 N-(methylaminopropyl)triphenylphosphonium Bromide Dimethyl Ester]	–	–	–	–	IC90 [1, 5]: 0.00418 µM; Dark toxicity μM (IC10) [3]: 1.032 µM
C=Cc1c(C)c2cc3nc(c(CC(=O)N(C)CCCC)c4[nH]c(cc5nc(cc1[nH]2)C(C)=C5CC)c(C)c4C(=O)O)[C@@H](CCC(=O)O)[C@@H]3C [Compound 11, Chlorin e6 N-methylbutylamine bis(N-methyl-D-glucamine) Salt]	Good	94.15	93.94	–	Purity by HPLC (%) after 7 days ([4]; distilled deionised water, air and ambient light not excluded, after 7 days): 93.93 (after %
C=Cc1c(C)c2cc3nc(c(CC(=O)O)c4[nH]c(cc5nc(cc1[nH]2)C(C)=C5CC)c(C)c4C(=O)OC)[C@@H](CCC(=O)O)[C@@H]3C [Compound 12, Chlorin e6 5-methyl Ester Monosodium Mono(N-methyl-D-glucamine) Salt]	Poor	83.73	81.10	36.95	–
C=Cc1c(C)c2cc3nc(c(CC(=O)O)c4[nH]c(cc5nc(cc1[nH]2)C(C)=C5CC)c(C)c4C(=O)OC)[C@@H](CCC(=O)O)[C@@H]3C [Compound 13, Chlorin e6 5-methyl Ester Disodium Salt]	Poor	–	–	–	Purity by HPLC after 0.5 hours (%) [4, 7]: 85.46%; Purity by HPLC after 4 hours (%) [4, 7]: 81.54%; Purity by HPLC after 66 hours (%) [4, 7]: 41.60%
C=Cc1c(C)c2cc3nc(c(CC(=O)OCC)c4[nH]c(cc5nc(cc1[nH]2)C(C)=C5CC)c(C)c4C(=O)O)[C@@H](CCC(=O)O)[C@@H]3C [Compound 16, Chlorin e6 15-ethyl Ester bis(N-methyl-D-glucamine) Salt]	Good	–	–	95.34	–
C=Cc1c(C)c2cc3nc(c(CC(=O)OCC)c4[nH]c(cc5nc(cc1[nH]2)C(C)=C5CC)c(C)c4C(=O)O)[C@@H](CCC(=O)O)[C@@H]3C [Compound 17, Chlorin e6 15-ethyl Ester Disodium Salt]	–	–	–	–	Purity by HPLC after 66 hours (%) [4, 7]: 76.69%; Purity by HPLC (%) after 2 hours ([4]; distilled deionised water, air and ambient light not excluded, after 2 hours): 77.60 (after %
C=Cc1c(C)c2cc3nc(c(CC(=O)O)c4[nH]c(cc5nc(cc1[nH]2)C(C)=C5CC)c(C)c4C(=O)OC)[C@@H](CCC(=O)O)[C@@H]3C [Compound 20, Chlorin e6 5-methyl Ester bis(N-methyl-D-glucamine) Salt]	Poor	81.39	81.28	1.62	–
C=Cc1c(C)c2cc3nc(c(CC(=O)O)c4[nH]c(cc5nc(cc1[nH]2)C(C)=C5CC)c(C)c4C(=O)O)[C@@H](CCC(=O)O)[C@@H]3C [Photodithiazine, reference compound]	Poor	88.56	84.33	40.27	–
C=Cc1c(C)c2cc3nc(c(CC(=O)N[C@@H](CC(=O)O)C(=O)O)c4[nH]c(cc5nc(cc1[nH]2)C(C)=C5CC)c(C)c4C(=O)O)[C@@H](CCC(=O)O)[C@@H]3C [Talaporfin sodium, reference compound]	–	–	–	–	Phototoxicity in vitro compared with compounds 1, 2 and 8 [1]: substantially lower phototoxicity; Dark toxicity μM (IC10) [2]: 11.10 µM
